One may read the IC50 as the point on the concentration scale where inhibition reaches its midpoint.

The source of these data is US20220388962A1 (Biohaven Therapeutics Ltd., priority 2019, published 2022).

The target of the first experiment is T1, TDP-43 (Homo sapiens, UniProt Q13148).
T1 sequence (Q13148 whole entry): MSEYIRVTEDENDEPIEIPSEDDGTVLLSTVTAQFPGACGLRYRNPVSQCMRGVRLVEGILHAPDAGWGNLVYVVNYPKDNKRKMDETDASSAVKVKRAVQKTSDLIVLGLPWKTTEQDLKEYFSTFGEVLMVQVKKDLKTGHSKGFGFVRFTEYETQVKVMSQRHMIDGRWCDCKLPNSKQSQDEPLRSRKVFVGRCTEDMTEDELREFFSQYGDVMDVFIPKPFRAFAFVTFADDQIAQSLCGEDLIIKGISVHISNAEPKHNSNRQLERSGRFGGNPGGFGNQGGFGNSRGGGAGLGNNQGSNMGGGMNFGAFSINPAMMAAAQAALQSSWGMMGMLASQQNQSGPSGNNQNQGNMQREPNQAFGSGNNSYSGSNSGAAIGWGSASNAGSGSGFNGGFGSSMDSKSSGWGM
Experiment: not given
The conditions noted are these: previously reported; cited from earlier work.
For `COc1ccc(-c2cc(NCCCN(C)C)c3ccccc3n2)cc1` [(XXVIII)], the “caspase-7 cleavage of TDP-43” value was “promoted caspase-7 cleavage of TDP-43”.

The next experiment concerns the target T1, TDP-43.
Experiment: not given
The conditions noted are these: using bt-(TG)6, not bt-TAR32; cited from earlier work.
Turning to `COc1ccc(-c2cc(NCCCN(C)C)c3ccccc3n2)cc1` [(XXVIII)], the “activity in TDP-43 alpha-screen” value is listed as “active”.

The target of a further experiment is T1, TDP-43. Nature of the experiment: TDP-43-DNA alpha-screen assay (bt-TAR-32 displacement). In kind it is binding. As to conditions: bt-TAR-32 0.125 nM, 15 ng/ml TDP-43. In a few lines: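 GST-TDP-43 (15 ng/ml final) on anti-GST acceptor beads pre-incubated 30 min at 23 °C with compound (50 to 0.02 μM, half-log) in 25 mM Tris pH 7.4, 0.1% BSA, 0.1% Triton X-100. Biotinylated TAR-32 DNA (0.125 nM final) on streptavidin donor beads added, 90 min at 23 °C dark; AlphaScreen signal fitted for IC50.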
On the technique in general: Alpha assays give light when donor and acceptor beads are brought close together.
As to `COc1ccc(-c2cc(N[C@H]3CC[C@H](N)CC3)c3cc(OC)c(OC)cc3n2)cc1` [Example 101], the IC50 was determined as 170 nM.

In the case of `COc1ccc(-c2cc(NC3CCN(C4CCC(N)CC4)CC3)c3ccccc3n2)cc1` (centres unmarked) [Example 102], the IC50 turned out to be 180 nM.

Turning to `CN(C)CCCNc1cc(-c2ccc(N3CCNCC3)cc2)nc2ccc(F)cc12` [Example 103, N-(3-(dimethylamino)propyl)-6-fluoro-2-(4-(piperazin-1-yl)phenyl)quinolin-4-amine], the IC50 was 220 nM.

For the compound `COc1ccc(-c2cc(NC3CCN(CCCN)CC3)c3ccccc3n2)cc1` [Example 104], the IC50 worked out at 220 nM.

Take `COc1ccc(-c2cc(N[C@H]3CC[C@@H](N)CC3)c3cc(OC)c(OC)cc3n2)cc1` [Example 105]: the half-maximal inhibitory concentration (IC50) was 230 nM.

As for `CC(C)C(N)C(=O)NC(C(=O)NC(C(=O)N1CCN(c2ccc(-c3cc(NCCCN(C)C)c4ccccc4n3)cc2)CC1)C(C)C)C(C)C` (centres unmarked) [Example 106], the IC50 was 240 nM.

`CN(C)CCCNc1cc(-c2cnn(C3CCN(C)CC3)c2)nc2ccccc12` [Example 107]: the IC50 was 260 nM.

Consider `COc1ccc(-c2cc(NCCCN(C)C)c3cc(OC)c(OC)cc3n2)cc1` [Example 108], for which the IC50 is 270 nM.

As to `COc1ccc(-c2cc(NCCCN)c3cc(OC)c(OC)cc3n2)cc1` [Example 109], the IC50 turned out to be 290 nM.

`CN(C)CCCNc1cc(-c2ccc(N3CCN(C)CC3)cc2)nc2ccccc12` [Example 110]: the IC50 was 310 nM.

On to `CC(C)C(N)C(=O)NC(C(=O)N1CCN(c2ccc(-c3cc(NCCCN(C)C)c4ccccc4n3)cc2)CC1)C(C)C` (centres unmarked) [Example 111], for which the IC50 worked out at 420 nM.

Take `COc1ccc(-c2cc(N[C@H]3C[C@@H](N)C3)c3ccccc3n2)cc1` [Example 112]: the IC50 was found to be 490 nM.

Turning to `NCCCNc1cc(-c2ccc3ncccc3c2)nc2ccccc12` [Example 113], the IC50 came out at 570 nM.

For `CN(C)CCCNc1cc(-c2ccc(N3CCN(C)C(=O)C3)cc2)nc2ccccc12` [Example 114], the IC50 is 600 nM.

For the compound `NCCCNc1cc(-c2ccc3c(c2)CCO3)nc2ccccc12` [Example 116], the IC50 was 640 nM.

As to `[2H]C([2H])([2H])Oc1ccc(-c2cc(NCCCN)c3ccccc3n2)cc1` [Example 117], the half-inhibitory concentration (IC50) stood at 760 nM.

`CN(C)CCCNc1cc(-c2ccc3ncccc3c2)nc2ccccc12` [Example 118]: the IC50 is 800 nM.

As for `NCCCNc1cc(C2=CCNCC2)nc2ccccc12` [Example 120], the IC50 was determined as 870 nM.

Take `COc1ccc(-c2cc(NC3CCNCC3)c3ccccc3n2)cc1` [Example 122]: the IC50 turned out to be 1170 nM.

Regarding `[2H]C([2H])([2H])Oc1ccc(-c2cc(NCCCN(C)C)c3ccccc3n2)cc1` [Example 123], the IC50 was 1210 nM.

Take `CN(C)CCCNc1cc(-c2ccc3occc3c2)nc2ccccc12` [Example 124]: the IC50 came to 1280 nM.

Regarding `Cn1cc(-c2cc(NCCCN)c3ccccc3n2)cn1` [Example 125], the IC50 turned out to be 1300 nM.

Regarding `CN(C)CCCNc1cc(-c2cnn(C3CC3)c2)nc2ccccc12` [Example 127], the IC50 is 1510 nM.

Turning to `NCCCNc1cc(C2=CCCCC2)nc2ccccc12` [Example 128], the half-maximal inhibitory concentration (IC50) turned out to be 1570 nM.

Turning to `COc1ccc(-c2cc(NCCCN(C)C(=O)[C@H](C)N)c3ccccc3n2)cc1` [Example 129], the IC50 worked out at 1660 nM.

`[2H]C([2H])([2H])N(CCCNc1cc(-c2ccc(OC)cc2)nc2ccccc12)C([2H])([2H])[2H]` [Example 130]: the IC50 worked out at 1780 nM.

Take `NCCCNc1cc(-c2ccco2)nc2ccccc12` [Example 131]: the IC50 stood at 2550 nM.

As for `COc1ccc(-c2cc(NCCCN(C)C)c3ccccc3n2)cc1` [Example 132], the IC50 turned out to be 2720 nM.

In the case of `COc1ccc(-c2cc(NCCCN(C)C)c3c(F)cccc3n2)cc1` [Example 133], the IC50 is 2900 nM.

As for `NCCCNc1cc(-c2cnn(CCN3CCOCC3)c2)nc2ccccc12` [Example 134], the IC50 was 2940 nM.

Turning to `COc1ccc(-c2cc(NCCCO)c3ccccc3n2)cc1` [Example 135], the IC50 worked out at 31700 nM.

Take `COc1ncc(-c2cc(NCCCN(C)C)c3ccccc3n2)cn1` [Example 136]: the IC50 was found to be 38500 nM.

In the case of `Cc1cc(NCCCN(C)C)c2ccccc2n1` [Example 137], the IC50 came out at 45600 nM.

Consider `COc1ccc(-c2cc(NCCC(=O)N(C)C)c3ccccc3n2)cc1` [Example 138], for which the IC50 turned out to be 52600 nM.

Consider `COc1ccc(-c2cc(NCCCN(C)C)c3ccccc3n2)cn1` [Example 139], for which the IC50 stood at 6510 nM.

For the compound `COc1ccc(-c2cc(NCCCN(C)C)c3cc4c(cc3n2)OC(F)(F)O4)cc1` [Example 140], the IC50 was found to be 6560 nM.

For `COc1ccc(-c2cc(NC3CCC(F)(F)CC3)c3ccccc3n2)cc1` [Example 141], the IC50 worked out at 64500 nM.

On to `COc1ccc(-c2cc(NCCC(=O)OC(C)(C)C)c3ccccc3n2)cc1` [Example 142], for which the IC50 came to 65300 nM.

Consider `COc1ccc2nc(C(F)(F)F)cc(NCCCN(C)C)c2c1` [Example 143], for which the IC50 came out at 79400 nM.

For `COc1cc2c(NCCCN(C)C)ccnc2cc1OCCCN1CCCC1` [Example 144], the IC50 is 10 nM.

With `COc1cc2nccc(NCCCN(C)CCCN)c2cc1OC` [Example 146], the IC50 stood at 410 nM.

For `COc1cc2nccc(NCCCN(C)CCCN)c2cc1OC` [Example 147, N^1-(3-aminopropyl)-N^3-(6,7-dimethoxyquinolin-4-yl)-N^1-methylpropane-1,3-diamine], the IC50 was 840 nM.
